In assay [1] the target is T1, BuChE from equine serum (eqBuChE) (Equus caballus, UniProt P81908).
T1 construct: The BuChE freeze-dried from equine serum (eqBuChE, Sigma Aldrich); purchased Sigma Aldrich; host or cells: equine serum
Nature of the assay: biochemical. In kind it is biochemical.

The target in assay [2] is T2, human erythrocyte AChE (hAChE) (Homo sapiens, UniProt P22303).
T2 construct: The human erythrocyte AChE (hAChE, aqueous buffer solution); purchased Sigma Aldrich; host or cells: human erythrocytes
Nature of the assay: biochemical. Format: biochemical.

Several values for one entry are separate records, joined by “and”; a condition that tells them apart may be missing. Equal entries are not always repeated. Where two headings read alike, the source gives them in different places.

T1 sequence (P81908 whole entry): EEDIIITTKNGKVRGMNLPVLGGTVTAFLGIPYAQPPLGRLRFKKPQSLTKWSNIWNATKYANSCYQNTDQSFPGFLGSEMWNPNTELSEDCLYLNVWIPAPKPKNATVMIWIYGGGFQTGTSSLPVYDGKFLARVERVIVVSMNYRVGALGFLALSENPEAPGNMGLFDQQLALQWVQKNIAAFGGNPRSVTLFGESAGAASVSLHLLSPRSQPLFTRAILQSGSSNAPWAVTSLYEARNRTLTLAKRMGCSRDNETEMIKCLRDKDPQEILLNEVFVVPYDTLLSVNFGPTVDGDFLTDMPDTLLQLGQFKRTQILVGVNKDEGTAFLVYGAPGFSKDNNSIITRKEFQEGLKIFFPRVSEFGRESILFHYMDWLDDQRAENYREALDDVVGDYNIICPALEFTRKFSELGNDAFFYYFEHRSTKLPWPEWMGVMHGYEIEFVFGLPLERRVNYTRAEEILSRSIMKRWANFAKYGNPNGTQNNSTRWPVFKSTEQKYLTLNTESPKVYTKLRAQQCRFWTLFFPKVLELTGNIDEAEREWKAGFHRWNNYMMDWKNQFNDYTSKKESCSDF
T2 sequence (P22303 32-617 isoform P22303-2 limits assumed): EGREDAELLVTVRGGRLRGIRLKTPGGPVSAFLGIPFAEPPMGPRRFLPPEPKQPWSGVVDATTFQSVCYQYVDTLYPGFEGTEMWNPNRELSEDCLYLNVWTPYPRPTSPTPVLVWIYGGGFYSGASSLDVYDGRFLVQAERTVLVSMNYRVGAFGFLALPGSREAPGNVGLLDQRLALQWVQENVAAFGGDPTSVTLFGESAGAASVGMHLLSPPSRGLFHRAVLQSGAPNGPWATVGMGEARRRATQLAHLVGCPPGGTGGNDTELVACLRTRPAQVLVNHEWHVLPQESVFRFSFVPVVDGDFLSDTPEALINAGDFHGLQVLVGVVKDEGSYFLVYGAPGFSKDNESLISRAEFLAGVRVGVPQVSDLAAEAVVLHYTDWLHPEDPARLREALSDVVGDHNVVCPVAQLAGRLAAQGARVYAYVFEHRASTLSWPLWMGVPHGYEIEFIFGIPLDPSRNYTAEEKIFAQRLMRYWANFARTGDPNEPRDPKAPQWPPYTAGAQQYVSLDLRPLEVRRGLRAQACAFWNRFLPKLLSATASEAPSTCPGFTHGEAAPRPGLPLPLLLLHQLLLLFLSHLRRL

In general, IC50 refers to the concentration that gives 50% inhibition. Regarding `Cc1ccc(OP(=O)(Oc2ccc(C)cc2)Oc2ccc(C)cc2)cc1` [Compound D, Tri(para-cresyl)phosphate], the results for the concentration for half-maximal inhibition (IC50) in assay [1] (IC50 eqBuChE) and in assay [2] (IC50 hAChE) were 116 µM and 26.3 µM, respectively.

As to `O=P(Oc1ccccc1)(Oc1ccccc1)Oc1ccc(Sc2ccc(OP(=O)(Oc3ccccc3)Oc3ccccc3)cc2)cc1` [Compound 3, 4,4′-dihydroxydiphenylthioether bis(diphenylphosphate)], the figures for the IC50 in assay [1] (IC50 eqBuChE) and in assay [2] (IC50 hAChE) were 166 µM and 34 µM, respectively.

For the compound `O=P(Oc1c(F)cccc1F)(Oc1c(F)cccc1F)Oc1c(F)cccc1F` [Compound F, Tri(2,6-difluorophenyl)phosphate], the values for the half-maximal inhibitory concentration (IC50) in assay [1] (IC50 eqBuChE) and in assay [2] (IC50 hAChE) were 20 µM and 12.9 µM, respectively.

Consider Tricresyl phosphate [Compound P], for which the “IC50 eqBuChE” value in assay [1] came out at 0.7 µg/mL. Also, the “IC50 hAChE” value in assay [2] came to 16.9 µg/mL.

Consider `CCCCC(CC)COP(=O)(Oc1ccccc1)Oc1ccccc1` (stereo not drawn) [Compound A, 2-ethylhexyl diphenylphosphate], for which the values for the half-maximal inhibitory concentration (IC50) in assay [1] (IC50 eqBuChE) and in assay [2] (IC50 hAChE) were 1.93 µM and 35 µM, respectively.

As to `CC(C)(C)c1ccc(OP(=O)(Oc2ccc(C(C)(C)C)cc2)Oc2ccc(C(C)(C)C)cc2)cc1` [Compound I, Tri(p-tert-butylphenyl)phosphate], the “action on butyrylcholinesterase, in words” value in assay [1] is recorded as “reduced inhibition”. The 50% inhibitory concentration (IC50) is 194 µM in assay [1] (IC50 eqBuChE) and 17 µM in assay [2] (IC50 hAChE). Further, the “action on acetylcholinesterase, in words” value in assay [2] is “active”.

Take `CC(C)(C)c1ccc(OP(=O)(Oc2ccccc2)Oc2ccc(C(C)(C)C)cc2)cc1` [Compound H, di(p-tertbutylphenyl)phenylphosphate]: the results for the IC50 in assay [1] (IC50 eqBuChE) and in assay [2] (IC50 hAChE) were 280 µM and 27.6 µM, respectively.

In turn, `O=P(Oc1ccccc1)(Oc1ccccc1)Oc1cc(OP(=O)(Oc2ccccc2)Oc2ccccc2)cc(OP(=O)(Oc2ccccc2)Oc2ccccc2)c1` [Compound 5, 1,3,5-phloroglucinol tris(bis(diphenylphosphate))] showed an IC50 in assay [1] (IC50 eqBuChE) of 100 µM.

In the case of `CCC(COP(=O)(Oc1ccccc1)Oc1ccccc1)(COP(=O)(Oc1ccccc1)Oc1ccccc1)COP(=O)(Oc1ccccc1)Oc1ccccc1` [Compound 7, trimethylolpropane tris(diphenylphosphate)], the 50% inhibitory concentration (IC50) in assay [1] (IC50 eqBuChE) was 145 µM; in assay [2] (IC50 hAChE), 22 µM.

Regarding `Cc1cccc(OP(=O)(Oc2cccc(C)c2)Oc2cccc(C)c2)c1` [Compound C, Tri(meta-cresyl)phosphate], the IC50 in assay [1] (IC50 eqBuChE) was 6.24 µM; in assay [2] (IC50 hAChE), 25.2 µM.

`O=P(OCCCl)(OCCCl)OCCCl` [Compound N, tris(chloroethyl)phosphate]: the concentration for half-maximal inhibition (IC50) in assay [1] (IC50 eqBuChE) was 315 µM; in assay [2] (IC50 hAChE), 28.7 µM.

Take Saligenin cresyl phosphate [Compound J]: in assay [1], the “IC50 eqBuChE” value stood at 0.7 µg/mL.

On to `Cc1ccccc1OP(=O)(Oc1ccccc1C)Oc1ccccc1C` [Compound B, Tri(ortho-cresyl)phosphate], for which the IC50 in assay [1] (IC50 eqBuChE) was 10 µM; in assay [2] (IC50 hAChE) it was 40.7 µM.

Regarding `NP(=O)(Oc1ccccc1)Oc1ccccc1` [Compound K, Diphenyl phosphoroamidate], the IC50 in assay [1] was 136 µM; in assay [2] it was 38.1 µM.

On to `O=P(Oc1ccccc1)(Oc1ccccc1)Oc1ccc(Oc2ccc(OP(=O)(Oc3ccccc3)Oc3ccccc3)cc2)cc1` [Compound 4, 4,4′-dihydroxydiphenylether bis(diphenylphosphate)], for which the IC50 in assay [1] (IC50 eqBuChE) was 118 µM; in assay [2] (IC50 hAChE), 33.9 µM.

Regarding `O=P(Oc1ccccc1)(Oc1ccccc1)Oc1ccc(OP(=O)(Oc2ccccc2)Oc2ccccc2)cc1` [Compound 1, Hydroquinone bis(diphenylphosphate)], the IC50 is 186 µM in assay [1] (IC50 eqBuChE) and 42 µM in assay [2] (IC50 hAChE).

For `CCCCC(CC)(COP(=O)(Oc1ccccc1)Oc1ccccc1)COP(=O)(Oc1ccccc1)Oc1ccccc1` [Compound 6, 2-butyl-2-ethyl-1,3-propanediol bis(diphenylphosphate)], the IC50 in assay [1] (IC50 eqBuChE) was 93.7 µM; in assay [2] (IC50 hAChE), 26.3 µM.

For `O=P(Oc1ccccc1)(Oc1ccccc1)Oc1ccc(-c2ccc(OP(=O)(Oc3ccccc3)Oc3ccccc3)cc2)cc1` [Compound 2, 4,4′-dihydroxybiphenyl bis(diphenylphosphate)], the half-maximal inhibitory concentration (IC50) is 155 µM and 244 µM in assay [1] (IC50 eqBuChE); 38.4 µM and 128 µM in assay [2] (IC50 hAChE).
